PubChem BioAssay (NCI)
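The concentration for 50% growth inhibition is given as GI50. TGI denotes the concentration required for complete inhibition of growth.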

Experiments:
Assay in all cases: NCI-60 cell line screen, 384-well format
A549 NSCLC = test system: A549 NSCLC
SF-268 CNS = test system: SF-268 CNS
SK-MEL-5 melanoma = test system: SK-MEL-5 melanoma
UO-31 renal = test system: UO-31 renal
KM12 colon = test system: KM12 colon
BT-549 breast = test system: BT-549 breast
IGROV1 ovarian = test system: IGROV1 ovarian
T-47D breast = test system: T-47D breast
MDA-MB-231 breast = test system: MDA-MB-231 breast
SNB-75 CNS = test system: SNB-75 CNS
NCI-H322M lung = test system: NCI-H322M lung
K-562 leukemia = test system: K-562 leukemia
HOP-62 NSCLC = test system: HOP-62 NSCLC
MDA-MB-468 breast = test system: MDA-MB-468 breast
RXF 393 renal = test system: RXF 393 renal
SNB-19 CNS = test system: SNB-19 CNS
UACC-257 melanoma = test system: UACC-257 melanoma
NCI-H522 lung = test system: NCI-H522 lung
SK-MEL-28 melanoma = test system: SK-MEL-28 melanoma
SR leukemia = test system: SR leukemia
HOP-92 NSCLC = test system: HOP-92 NSCLC
NCI-H460 NSCLC = test system: NCI-H460 NSCLC
SF-539 CNS = test system: SF-539 CNS
SF-295 CNS = test system: SF-295 CNS
HCT-15 colon = test system: HCT-15 colon
MDA-MB-435 melanoma = test system: MDA-MB-435 melanoma
M14 melanoma = test system: M14 melanoma
COLO 205 colon = test system: COLO 205 colon
PC-3 prostate = test system: PC-3 prostate
RPMI-8226 leukemia = test system: RPMI-8226 leukemia
EKVX NSCLC = test system: EKVX NSCLC
SN12C renal = test system: SN12C renal
HCC-2998 colon = test system: HCC-2998 colon
NCI/ADR-RES ovarian = test system: NCI/ADR-RES ovarian
LOX IMVI melanoma = test system: LOX IMVI melanoma
NCI-H226 lung = test system: NCI-H226 lung
OVCAR-5 ovarian = test system: OVCAR-5 ovarian
OVCAR-4 ovarian = test system: OVCAR-4 ovarian
CCRF-CEM leukemia = test system: CCRF-CEM leukemia
OVCAR-3 ovarian = test system: OVCAR-3 ovarian
U251 glioblastoma = test system: U251 glioblastoma
MOLT-4 leukemia = test system: MOLT-4 leukemia
786-0 renal = test system: 786-0 renal
MALME-3M melanoma = test system: MALME-3M melanoma
NCI-H23 lung = test system: NCI-H23 lung
SK-OV-3 ovarian = test system: SK-OV-3 ovarian
SW-620 colon = test system: SW-620 colon
UACC-62 melanoma = test system: UACC-62 melanoma
CAKI-1 renal = test system: CAKI-1 renal
HS 578T breast = test system: HS 578T breast
HL-60(TB) leukemia = test system: HL-60(TB) leukemia
HT29 colon = test system: HT29 colon

## CN1C/C=C/CCOc2cccc(c2)-c2ccnc(n2)Nc2cccc(c2)C1
A549 NSCLC
  GI50: 35.2 nM
  TGI: 1090 nM
SF-268 CNS
  GI50: 22.9 nM
  TGI: 67.8 nM
SK-MEL-5 melanoma
  GI50: 22 nM
  TGI: 53.6 nM
UO-31 renal
  GI50: 20.6 nM
  TGI: 40.7 nM
KM12 colon
  GI50: 26 nM
  TGI: 74.7 nM
BT-549 breast
  GI50: 23.5 nM
  TGI: 50.2 nM
IGROV1 ovarian
  TGI: 128 nM
T-47D breast
  GI50: 41.6 nM
  TGI: 1200 nM
MDA-MB-231 breast
  GI50: 51.5 nM
  TGI: 296 nM
SNB-75 CNS
  GI50: 26 nM
  TGI: 65.9 nM
NCI-H322M lung
  GI50: 30.1 nM
  TGI: 90.6 nM
K-562 leukemia
  GI50: 71 nM
  TGI: 307 nM
HOP-62 NSCLC
  GI50: 21.6 nM
  TGI: 49.4 nM
MDA-MB-468 breast
  GI50: 42.7 nM
  TGI: 147 nM
RXF 393 renal
  GI50: 19.2 nM
  TGI: 35.4 nM
SNB-19 CNS
  GI50: 41.1 nM
  TGI: 1600 nM
UACC-257 melanoma
  GI50: 58.2 nM
  TGI: 208 nM
NCI-H522 lung
  GI50: 59.8 nM
  TGI: 227 nM
SK-MEL-28 melanoma
  GI50: 25.7 nM
  TGI: 86.5 nM
SR leukemia
  TGI: 14.9 nM
HOP-92 NSCLC
  GI50: 44.3 nM
  TGI: 3560 nM
NCI-H460 NSCLC
  GI50: 19.9 nM
  TGI: 41.9 nM
SF-539 CNS
  GI50: 25.2 nM
  TGI: 62.6 nM
SF-295 CNS
  GI50: 34 nM
  TGI: 504 nM
HCT-15 colon
  GI50: 30.1 nM
  TGI: 119 nM
MDA-MB-435 melanoma
  GI50: 29.2 nM
  TGI: 88.9 nM
M14 melanoma
  GI50: 37.7 nM
  TGI: 118 nM
COLO 205 colon
  GI50: 24.7 nM
  TGI: 57.8 nM
PC-3 prostate
  GI50: 31.1 nM
  TGI: 94.9 nM
RPMI-8226 leukemia
  GI50: 23.7 nM
  TGI: 50.6 nM
EKVX NSCLC
  GI50: 50.2 nM
  TGI: 192 nM
SN12C renal
  GI50: 27.6 nM
  TGI: 90.3 nM
HCC-2998 colon
  GI50: 32.5 nM
  TGI: 219 nM
NCI/ADR-RES ovarian
  GI50: 34.2 nM
  TGI: 124 nM
LOX IMVI melanoma
  GI50: 18.5 nM
  TGI: 35.7 nM
NCI-H226 lung
  GI50: 26.9 nM
  TGI: 86 nM
OVCAR-5 ovarian
  GI50: 29.4 nM
  TGI: 7380 nM
OVCAR-4 ovarian
  TGI: 602 nM
CCRF-CEM leukemia
  GI50: 18.7 nM
  TGI: 35.5 nM
OVCAR-3 ovarian
  GI50: 22.9 nM
  TGI: 60.3 nM
U251 glioblastoma
  GI50: 34 nM
  TGI: 520 nM
MOLT-4 leukemia
  GI50: 19.8 nM
  TGI: 37.2 nM
786-0 renal
  GI50: 37 nM
  TGI: 224 nM
MALME-3M melanoma
  GI50: 33.5 nM
  TGI: 88.3 nM
NCI-H23 lung
  TGI: 106 nM
SK-OV-3 ovarian
  GI50: 65.3 nM
  TGI: 1140 nM
SW-620 colon
  GI50: 38.1 nM
  TGI: 279 nM
UACC-62 melanoma
  GI50: 18.6 nM
  TGI: 45.4 nM
CAKI-1 renal
  GI50: 30.1 nM
  TGI: 1140 nM
HS 578T breast
  GI50: 18.7 nM
  TGI: 43.3 nM
HL-60(TB) leukemia
  GI50: 16 nM
  TGI: 29.8 nM
HT29 colon
  GI50: 36.5 nM
  TGI: 203 nM
